In patent publication US10016418B2, “Compounds useful as modulators of TRPM8” (Senomyx, Inc., priority 2010, dated 2018):
pEC50: −log10 of the molar value. Blank lines part the entries; values can stand above or below the molecule they belong to.

How the values were obtained:
[1] = target: T1, hTRPM8 (Homo sapiens, UniProt Q7Z2W7); assay: hTRPM8 agonist assay in a mammalian cell line stably expressing hTRPM8; assay type: cell-based; details: for EC50 WS-3 Ratio: EC50 ratio to WS-3
T1 construct: expressed in transfected cells
Description: A mammalian cell line derivative which stably expresses hTRPM8 was used in biological assays in association with testing the present compounds with cool-tasting or -feeling properties (Servant et al. US 2007/0259354 A1 and references cited therein). Typical compound concentrations tested were 100 μM, 50 μM, 10 μM, 1 μM, and 0.5 μM. The present compounds have shown strong activity as agonists of hTRPM8. Assay results for compounds are illustrated in Table 1 below. Specifically, the Examples listed in Table 1, i.e., Compounds A1 to Compounds U10 are the specific compounds, i.e., Examples, as described above.

[2] = Cool Line Scale Test (sensory panel, 15 point line scale, WS-3 reference); assay type: in vivo, human
Description: All samples made with Low Sodium Buffer (LSB) pH ˜7.1 and contain 0.1% ethanol.
Compounds are rated on a 15 point line scale where 45 μM WS-3 (N-Ethyl-p-menthane-3-carboxamide) is ranked as a 5 in cool intensity. In most cases our compounds are tested to determine at what concentration the cooling intensity is equivalent to 45 μM WS-3. In each test, the panelist is presented with a 0 μM control sample, a 45 μM WS-3 control sample and the experimental compound sample and asked to rate the cooling intensity of each sample. Panelists are also asked to rate bitterness. In the table below there was no significant bitterness detected unless otherwise noted. Also, in the table below, n represents the number of tests completed for a given experiment (#panelists x #repetitions).
All samples were prepared with Low Sodium Buffer (LSB) pH ˜7.1 and contain 0.1% ethanol

[3] = Table 1, cell line stably expressing hTRPM8
[4] = Table 7, scaffold T7, Ar phenyl vs thienyl

T1 sequence (Q7Z2W7 whole entry): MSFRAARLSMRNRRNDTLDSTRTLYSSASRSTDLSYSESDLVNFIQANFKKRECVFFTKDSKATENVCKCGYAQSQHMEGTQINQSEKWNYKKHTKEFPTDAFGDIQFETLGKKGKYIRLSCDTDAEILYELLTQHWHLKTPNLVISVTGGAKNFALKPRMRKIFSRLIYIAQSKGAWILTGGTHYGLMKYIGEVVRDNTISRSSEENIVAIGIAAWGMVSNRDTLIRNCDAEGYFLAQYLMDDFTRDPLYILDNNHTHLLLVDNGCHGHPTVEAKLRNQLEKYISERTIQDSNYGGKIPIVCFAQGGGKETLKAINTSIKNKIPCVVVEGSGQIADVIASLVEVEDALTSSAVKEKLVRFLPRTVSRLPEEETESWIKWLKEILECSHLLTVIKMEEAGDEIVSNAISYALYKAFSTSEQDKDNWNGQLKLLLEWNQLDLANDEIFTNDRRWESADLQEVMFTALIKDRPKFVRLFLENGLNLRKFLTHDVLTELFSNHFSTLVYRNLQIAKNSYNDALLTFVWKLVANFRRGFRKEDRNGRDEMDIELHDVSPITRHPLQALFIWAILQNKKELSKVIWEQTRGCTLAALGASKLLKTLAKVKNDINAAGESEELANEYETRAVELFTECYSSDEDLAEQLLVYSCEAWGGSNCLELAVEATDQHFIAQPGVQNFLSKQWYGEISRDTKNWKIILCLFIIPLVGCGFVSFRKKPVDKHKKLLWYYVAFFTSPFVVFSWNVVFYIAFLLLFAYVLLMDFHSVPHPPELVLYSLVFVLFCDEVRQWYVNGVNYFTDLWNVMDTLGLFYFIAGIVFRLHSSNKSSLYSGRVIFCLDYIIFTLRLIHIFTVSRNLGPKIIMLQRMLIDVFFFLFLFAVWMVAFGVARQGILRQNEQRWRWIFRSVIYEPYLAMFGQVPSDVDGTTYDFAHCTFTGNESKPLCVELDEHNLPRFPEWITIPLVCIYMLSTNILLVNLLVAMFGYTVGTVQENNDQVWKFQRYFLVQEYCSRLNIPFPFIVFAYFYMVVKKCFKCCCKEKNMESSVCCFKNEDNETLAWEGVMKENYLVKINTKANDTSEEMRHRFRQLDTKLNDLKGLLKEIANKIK

SMILES: CCN(Cc1cccs1)C(=O)/C=C/c1ccc2c(c1)OCO2
pEC50 ([1]; Table 8, scaffold T8): < 9.00

SMILES: CCNC(=O)C1CC(C)CCC1C(C)C (centres unmarked) [WS-3, N-Ethyl-p-menthane-3-carboxamide, reference compound]
Average Cooling ([2]; Table 2, 45 μM WS-3 control, LSB pH ~7.1, 0.1% ethanol, n = 30): 3.8
Average Cooling ([2]; Table 4, 45 μM WS-3 control, n = 28): 5.2

SMILES: O=C(COc1ccc(Br)cc1)N(Cc1ccccc1)c1ccccn1 [drawing 234: 4-Br, 2-Pyridyl, Phenyl, reference compound]
pEC50 [1, 4]: 4.81

SMILES: O=C(COc1ccc(Br)cc1)N(Cc1cccs1)c1ccccn1 [drawing 234: 4-Br, 2-Pyridyl, Thienyl]
pEC50 [1, 4]: 5.64

SMILES: O=C(COc1ccc(Cl)cc1)N(Cc1cccs1)c1ccccn1 [drawing 234: 4-Cl, 2-Pyridyl, Thienyl]
pEC50 [1, 4]: 5.63

SMILES: Cc1ccc(OCC(=O)N(Cc2ccccc2)c2ccccn2)cc1 [drawing 234: 4-Me, 2-Pyridyl, Phenyl, reference compound]
pEC50 [1, 4]: 5.33

SMILES: Cc1ccc(OCC(=O)N(Cc2cccs2)c2ccccn2)cc1 [drawing 234: 4-Me, 2-Pyridyl, Thienyl]
pEC50 [1, 4]: 6.30

SMILES: CCN(Cc1ccccc1)C(=O)COc1ccc(C)cc1 [drawing 234: 4-Me, Ethyl, Phenyl, reference compound]
pEC50 [1, 4]: 6.11

SMILES: CCN(Cc1cccs1)C(=O)COc1ccc(C)cc1 [drawing 234: 4-Me, Ethyl, Thienyl]
pEC50 [1, 4]: 8.16

SMILES: Cc1ccc(OCC(=O)N(C)Cc2ccccc2)cc1 [drawing 234: 4-Me, Methyl, Phenyl, reference compound]
pEC50 [1, 4]: < 4.00

SMILES: Cc1ccc(OCC(=O)N(C)Cc2cccs2)cc1 [drawing 234: 4-Me, Methyl, Thienyl]
pEC50 [1, 4]: 6.43

SMILES: CCN(Cc1ccccc1)C(=O)COc1ccccc1 [drawing 234: H, Ethyl, Phenyl, reference compound]
pEC50 [1, 4]: 5.04

SMILES: CCN(Cc1cccs1)C(=O)COc1ccccc1 [drawing 234: H, Ethyl, Thienyl]
pEC50 [1, 4]: 5.84

Now from value to molecule, other results behind:

EC50 WS-3 Ratio ([1]; Table 1): 782471
pEC50 [1, 3]: 11.05
SMILES: O=C(COc1ccc2c(c1)CCC2)N(Cc1cccs1)c1cc[nH]n1 [Example A1, 2-(2,3-dihydro-1H-inden-5-yloxy)-N-(1H-pyrazol-3-yl)-N-(thiophen-2-ylmethyl)acetamide]

EC50 WS-3 Ratio ([1]; Table 1): 1000000
pEC50 [1, 3]: 12.00
SMILES: Cc1c[nH]nc1N(Cc1cccs1)C(=O)COc1ccc2c(c1)CCC2 [Example B1, 2-(2,3-dihydro-1H-inden-5-yloxy)-N-(4-methyl-1H-pyrazol-3-yl)-N-(thiophen-2-ylmethyl)acetamide]
Sensory Results: cooling compared with 0 μM WS-3 ([2]; compound at 5 μM): Panelists found 5 μM Compound B2 was significantly more cooling

EC50 WS-3 Ratio ([1]; Table 1): 502141
pEC50 [1, 3]: 10.77
SMILES: O=C(COc1ccc2c(c1)CCC2)N(Cc1cccs1)c1cn[nH]c1 [Example C1, 2-(2,3-dihydro-1H-inden-5-yloxy)-N-(1H-pyrazol-4-yl)-N-(thiophen-2-ylmethyl)acetamide]

EC50 WS-3 Ratio ([1]; Table 1): 21178
pEC50 [1, 3]: 9.69
SMILES: Cc1ccc(OCC(=O)N(Cc2cccs2)c2ccn[nH]2)cc1 [Example F1, N-(1H-pyrazol-5-yl)-N-(thiophen-2-ylmethyl)-2-(p-tolyloxy)acetamide]
Average Cooling ([2]; Table 4, 3 μM in LSB pH ~7.1, 0.1% ethanol, n = 28): 5.1
Sensory Results: cooling compared with 0 μM WS-3 ([2]; compound at 3 μM): Panelists found 3 μM Compound F1 was significantly more cooling
Sensory Results: cooling compared with 45 μM WS-3 ([2]; compound at 3 μM): not significantly different in cooling

EC50 WS-3 Ratio ([1]; Table 1): 577
pEC50 [1, 3]: 8.11
SMILES: CCN(Cc1cccs1)C(=O)COc1ccc(C)cc1 [Example U1, N-ethyl-N-(thiophen-2-ylmethyl)-2-(p-tolyloxy)acetamide]
Sensory Results: cooling compared with 0 μM WS-3 ([2]; compound at 5 μM): Panelists found 5 μM Compound U1 was significantly more cooling
